Measured values: patent US20060013880A1, “Formulation stabilizer for proton pump inhibitors” (priority 2004, published 2006)

Procedure: This standardized stress study simulates degradation during long-term storage under high, but naturally occurring humidity levels. • 1) Dry binary mixture was prepared by accurately weighing 30 mg of lansoprazole ( Lot # A10344, purchased from ITF Chemical, LTDA, of Polo Petrochimico, Brazil) into a 20 ml head space-gas chromatography vial. A stabilizer was also weighed and added into the vial. The stabilizer tested in the experiments included the polymeric bases: cholestyramine chloride ( Lot# 038167, Dow Chemical), cholestyramine resin in hydroxide form (prepared from cholestyramine chloride as described in Example 1), Eudragit E-PO powder (lot# G030131033, Rohm Gmbh, Germany), and chitosan powder (Mutchler inc., Harrington, N.J.). […] The lansoprazole and stabilizer were mixed by vortexing for 30 seconds. • 2) A second set of dry binary mixtures were prepared in a head space-gas chromatography vial with a glass insert. […] Ten microliters of the diluted samples were analyzed by HPLC to quantitate the remaining lansoprazole using freshly prepared external lansoprazole standard solution. […]

cholestyramine hydroxide
Stabilization effect for lansoprazole (in words): significant stabilization effect
